Experimental data: paper PMC12281424, “A Rac-specific competitive inhibitor of guanine nucleotide binding reduces metastasis in triple-negative breast cancer” (Cell Reports Medicine, 2025)

Assays:
RAC2 = target: T1, RAC2 (Homo sapiens, UniProt P15153); assay: GEF-stimulated nucleotide exchange; type: biochemical; set-up: dose or concentration left out as unconfirmed
T1 construct: Full-length RAC2, RHOG, RHOA and CDC42 were purified as previously described; made in house
Text: (§1) Figure 4 A41 selectively impairs RAC protein activation (A) Representative surface plasmon resonance (SPR) sensograms of binding of immobilized RHOA or CDC42 with indicated increasing concentrations of A41 (N > 3). (B) Effect of A41 on GEF-stimulated RAC2, RHOG, RHOA, and CDC42 nucleotide exchange. […] Kobs is expressed as mean ± SEM. ∗p < 0.001 vs. control. (C) Effect of A41 on RAC1 G30S activation. […] The GEF TRIO was used to induce nucleotide exchange (N = 3). Data are expressed as mean ± SEM. (D) Immunoblot analysis and associated quantification of RAC-GTP level and total RAC expression in NIH-3T3 fibroblasts expressing RAC wild-type (RAC1 WT) or RAC1 oncomutants (RAC1 P29S and RAC1b) in the absence (Ctrl) and presence of A41 (10 μM). RAC activation was measured as the ratio of RAC-GTP to total RAC and expressed relative to Ctrl condition. Data are presented as mean ± SEM. ∗∗∗p < 0.001 vs. controls.
(§2) Full-length RAC1 carrying a 6xHis tag in C-terminus was purified as previously described.[64] […] Specific exchange activity toward RHOA determined by fluorescence kinetics is 0.04 s^−1M^−1.
(§3) Nucleotide exchange kinetics were measured by recording the increase in fluorescence following the association of mant-GTP on GDP-bound RHO protein or the decay in fluorescence following the dissociation of mant-GDP pre-loaded onto the RHO protein (λEx = 360 nm, λEm = 440 nm) as previously described.[39] […]

RHOG = target: T2, RHOG (Homo sapiens, UniProt P84095); assay: GEF-stimulated nucleotide exchange; type: biochemical; set-up: dose or concentration left out as unconfirmed
T2 construct: Full-length RAC2, RHOG, RHOA and CDC42 were purified as previously described; made in house
T2 sequence (P84095 whole entry): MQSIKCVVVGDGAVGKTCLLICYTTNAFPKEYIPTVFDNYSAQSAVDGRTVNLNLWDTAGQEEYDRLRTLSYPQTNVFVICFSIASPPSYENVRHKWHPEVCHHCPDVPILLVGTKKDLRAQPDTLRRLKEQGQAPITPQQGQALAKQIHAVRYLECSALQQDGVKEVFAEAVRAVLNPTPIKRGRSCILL
Text: as §1, §2, §3

[1] = Ames fluctuation test (2nd group); type: cell-based
Text: Data S3. Ames-fluctuation assay-A41.
Test Concentration Count Positive Significance Fisher Exact Test
(# of wells) (- to +++) (p-value)
Ames fluctuation test (TA100 + S9

[2] = target: Leukotriene, Cysteinyl CysLT1 (Homo sapiens, UniProt Q9Y271); assay: Safety screen; type: binding
Method: (§4) Blood cell counts, kinase profiler, safety screen, bacterial cytotoxicity, Ames, micronucleus assays were performed by the company Eurofins (France).

Melanocortin MC1 = Melanocortin MC1 (Homo sapiens, UniProt Q01726); assay: Safety screen; type: binding
Sequence of Melanocortin MC1 (Q01726 whole entry): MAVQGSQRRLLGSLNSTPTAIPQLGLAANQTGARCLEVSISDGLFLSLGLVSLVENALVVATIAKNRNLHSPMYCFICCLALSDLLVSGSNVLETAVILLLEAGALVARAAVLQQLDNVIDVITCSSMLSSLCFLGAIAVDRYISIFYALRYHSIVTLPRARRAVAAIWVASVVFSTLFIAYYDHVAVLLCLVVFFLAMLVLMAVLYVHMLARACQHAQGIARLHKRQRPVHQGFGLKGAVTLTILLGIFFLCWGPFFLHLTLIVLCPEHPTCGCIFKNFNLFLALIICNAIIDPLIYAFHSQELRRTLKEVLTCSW
Method: as §4

Progesterone PR-B = Progesterone PR-B (Homo sapiens, UniProt P06401); assay: Safety screen; type: binding
Sequence of Progesterone PR-B (P06401 whole entry): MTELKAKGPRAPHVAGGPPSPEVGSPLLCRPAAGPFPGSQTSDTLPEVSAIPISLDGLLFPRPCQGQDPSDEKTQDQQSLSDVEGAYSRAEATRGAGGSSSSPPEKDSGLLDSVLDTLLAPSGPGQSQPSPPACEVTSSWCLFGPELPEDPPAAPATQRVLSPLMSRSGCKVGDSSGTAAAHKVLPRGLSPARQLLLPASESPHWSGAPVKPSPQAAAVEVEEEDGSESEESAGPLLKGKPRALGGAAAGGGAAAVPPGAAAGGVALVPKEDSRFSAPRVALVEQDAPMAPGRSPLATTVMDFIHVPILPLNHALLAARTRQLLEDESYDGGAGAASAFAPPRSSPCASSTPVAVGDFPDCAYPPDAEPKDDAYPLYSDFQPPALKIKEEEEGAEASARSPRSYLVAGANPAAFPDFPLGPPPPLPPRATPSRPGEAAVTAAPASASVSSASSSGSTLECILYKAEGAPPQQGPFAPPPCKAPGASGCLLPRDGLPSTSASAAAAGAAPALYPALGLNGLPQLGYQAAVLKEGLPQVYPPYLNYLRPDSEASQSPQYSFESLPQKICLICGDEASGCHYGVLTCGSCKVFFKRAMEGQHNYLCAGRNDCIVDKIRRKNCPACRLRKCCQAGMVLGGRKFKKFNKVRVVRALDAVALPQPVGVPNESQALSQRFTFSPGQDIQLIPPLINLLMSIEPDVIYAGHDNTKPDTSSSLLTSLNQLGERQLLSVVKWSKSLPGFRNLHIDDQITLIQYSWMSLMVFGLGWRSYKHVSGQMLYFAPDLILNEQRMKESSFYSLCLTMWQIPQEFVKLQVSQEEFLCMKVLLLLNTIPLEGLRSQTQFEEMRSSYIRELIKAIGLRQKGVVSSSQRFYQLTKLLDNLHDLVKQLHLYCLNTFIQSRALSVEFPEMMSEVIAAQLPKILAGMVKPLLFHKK
Method: (§5) Blood cell counts, kinase profiler, safety screen, bacterial cytotoxicity, Ames, micronucleus assays were performed by the company Eurofins (France). The kinase profiler was performed by the company Eurofins (Discovery, Panlab and Cerep).

CDK17/cyclinY(h) = CDK17/cyclinY(h) (Homo sapiens, UniProt Q00537); assay: Kinase Profiler; type: biochemical
Method: as §5

CLK2(h) = CLK2(h) (Homo sapiens, UniProt P49760); assay: Kinase Profiler; type: biochemical
Sequence of CLK2(h) (P49760 whole entry): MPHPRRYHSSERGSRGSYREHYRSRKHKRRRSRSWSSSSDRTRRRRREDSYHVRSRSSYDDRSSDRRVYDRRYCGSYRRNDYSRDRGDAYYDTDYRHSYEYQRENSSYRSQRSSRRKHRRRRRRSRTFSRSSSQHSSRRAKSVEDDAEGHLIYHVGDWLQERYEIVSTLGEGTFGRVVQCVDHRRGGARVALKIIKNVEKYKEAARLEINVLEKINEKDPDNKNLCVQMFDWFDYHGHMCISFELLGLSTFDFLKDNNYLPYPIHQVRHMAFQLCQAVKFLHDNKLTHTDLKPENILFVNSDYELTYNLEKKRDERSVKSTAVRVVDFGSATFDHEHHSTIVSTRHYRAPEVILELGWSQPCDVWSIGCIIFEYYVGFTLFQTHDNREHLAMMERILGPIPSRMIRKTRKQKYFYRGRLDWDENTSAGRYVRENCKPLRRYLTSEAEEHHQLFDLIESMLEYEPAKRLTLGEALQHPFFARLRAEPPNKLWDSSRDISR
Method: (§6) The kinase profiler was performed by the company Eurofins (Discovery, Panlab and Cerep).

eEF-2K(h) = eEF-2K(h) (Homo sapiens, UniProt O00418); assay: Kinase Profiler; type: biochemical
Method: as §6

EphA8(h) = EphA8(h) (Homo sapiens, UniProt P29322); assay: Kinase Profiler; type: biochemical
Sequence of EphA8(h) (P29322 28-1005): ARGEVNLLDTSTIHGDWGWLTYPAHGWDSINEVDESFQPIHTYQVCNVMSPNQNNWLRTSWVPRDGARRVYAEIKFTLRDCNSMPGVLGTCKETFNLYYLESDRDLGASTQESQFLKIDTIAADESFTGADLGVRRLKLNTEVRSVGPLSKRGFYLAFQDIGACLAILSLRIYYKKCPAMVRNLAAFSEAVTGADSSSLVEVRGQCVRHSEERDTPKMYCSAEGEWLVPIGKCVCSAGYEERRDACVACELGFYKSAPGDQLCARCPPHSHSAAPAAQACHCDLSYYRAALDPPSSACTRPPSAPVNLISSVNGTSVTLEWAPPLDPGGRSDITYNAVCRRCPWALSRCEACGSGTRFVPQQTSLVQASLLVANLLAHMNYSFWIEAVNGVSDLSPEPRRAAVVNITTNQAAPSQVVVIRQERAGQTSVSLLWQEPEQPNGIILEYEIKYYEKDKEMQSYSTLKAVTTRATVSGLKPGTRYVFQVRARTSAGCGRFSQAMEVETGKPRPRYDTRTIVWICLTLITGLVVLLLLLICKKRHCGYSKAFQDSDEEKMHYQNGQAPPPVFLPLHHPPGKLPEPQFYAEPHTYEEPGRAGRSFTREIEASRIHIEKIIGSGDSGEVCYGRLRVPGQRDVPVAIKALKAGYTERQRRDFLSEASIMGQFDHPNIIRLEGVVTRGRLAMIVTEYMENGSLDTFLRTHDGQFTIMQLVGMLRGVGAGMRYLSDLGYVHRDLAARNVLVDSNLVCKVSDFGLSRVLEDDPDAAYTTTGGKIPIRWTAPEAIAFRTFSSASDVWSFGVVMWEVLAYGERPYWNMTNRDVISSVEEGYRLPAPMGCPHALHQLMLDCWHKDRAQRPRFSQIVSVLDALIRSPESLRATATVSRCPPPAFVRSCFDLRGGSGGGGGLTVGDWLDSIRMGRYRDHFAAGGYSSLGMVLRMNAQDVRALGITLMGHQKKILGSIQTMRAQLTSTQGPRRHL
Method: as §5

Fer(h) = Fer(h) (Homo sapiens, UniProt P16591); assay: Kinase Profiler; type: biochemical
Sequence of Fer(h) (P16591 whole entry): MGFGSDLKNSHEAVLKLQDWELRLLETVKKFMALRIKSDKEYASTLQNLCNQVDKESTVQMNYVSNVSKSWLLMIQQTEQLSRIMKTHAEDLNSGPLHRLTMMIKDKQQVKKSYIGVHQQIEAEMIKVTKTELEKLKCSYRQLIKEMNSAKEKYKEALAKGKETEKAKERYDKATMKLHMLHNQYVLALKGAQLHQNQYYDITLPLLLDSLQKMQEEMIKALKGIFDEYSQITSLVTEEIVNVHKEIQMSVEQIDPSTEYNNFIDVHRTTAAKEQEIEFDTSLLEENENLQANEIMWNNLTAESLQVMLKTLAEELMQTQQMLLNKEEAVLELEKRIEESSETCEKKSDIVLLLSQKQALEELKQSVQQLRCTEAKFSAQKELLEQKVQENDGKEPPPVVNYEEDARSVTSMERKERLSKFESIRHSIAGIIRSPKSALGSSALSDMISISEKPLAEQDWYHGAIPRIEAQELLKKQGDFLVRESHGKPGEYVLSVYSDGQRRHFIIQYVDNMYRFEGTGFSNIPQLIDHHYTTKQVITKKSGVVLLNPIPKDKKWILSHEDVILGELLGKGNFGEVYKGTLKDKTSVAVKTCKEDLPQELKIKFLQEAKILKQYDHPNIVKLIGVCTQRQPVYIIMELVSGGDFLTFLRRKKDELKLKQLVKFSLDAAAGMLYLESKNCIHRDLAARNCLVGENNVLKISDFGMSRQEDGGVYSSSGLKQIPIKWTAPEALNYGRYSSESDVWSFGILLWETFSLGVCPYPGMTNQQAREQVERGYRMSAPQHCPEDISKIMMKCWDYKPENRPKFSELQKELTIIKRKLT
Method: as §6

Fgr(h) = Fgr(h) (Homo sapiens, UniProt P09769); assay: Kinase Profiler; type: biochemical
Sequence of Fgr(h) (P09769 whole entry): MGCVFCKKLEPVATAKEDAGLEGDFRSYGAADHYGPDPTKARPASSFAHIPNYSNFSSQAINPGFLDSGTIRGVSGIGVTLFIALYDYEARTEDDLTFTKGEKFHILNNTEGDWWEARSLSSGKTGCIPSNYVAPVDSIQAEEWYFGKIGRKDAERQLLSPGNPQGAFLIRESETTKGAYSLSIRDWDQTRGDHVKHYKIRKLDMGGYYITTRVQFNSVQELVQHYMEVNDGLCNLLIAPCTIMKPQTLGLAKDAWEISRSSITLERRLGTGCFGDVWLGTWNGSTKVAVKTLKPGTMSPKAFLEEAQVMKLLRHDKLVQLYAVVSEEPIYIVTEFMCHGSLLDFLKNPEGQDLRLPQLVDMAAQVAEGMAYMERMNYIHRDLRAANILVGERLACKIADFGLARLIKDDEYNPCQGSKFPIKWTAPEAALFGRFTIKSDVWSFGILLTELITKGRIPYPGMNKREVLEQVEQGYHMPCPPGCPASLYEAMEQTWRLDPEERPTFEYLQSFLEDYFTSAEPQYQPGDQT
Method: as §6

mTOR(h) = mTOR(h) (Homo sapiens, UniProt P42345); assay: Kinase Profiler; type: biochemical
Method: as §6

PASK(h) = PASK(h) (Homo sapiens, UniProt Q96RG2); assay: Kinase Profiler; type: biochemical
Method: as §6

PTK5(h) = PTK5(h) (Homo sapiens, UniProt P42685); assay: Kinase Profiler; type: biochemical
Sequence of PTK5(h) (P42685 whole entry): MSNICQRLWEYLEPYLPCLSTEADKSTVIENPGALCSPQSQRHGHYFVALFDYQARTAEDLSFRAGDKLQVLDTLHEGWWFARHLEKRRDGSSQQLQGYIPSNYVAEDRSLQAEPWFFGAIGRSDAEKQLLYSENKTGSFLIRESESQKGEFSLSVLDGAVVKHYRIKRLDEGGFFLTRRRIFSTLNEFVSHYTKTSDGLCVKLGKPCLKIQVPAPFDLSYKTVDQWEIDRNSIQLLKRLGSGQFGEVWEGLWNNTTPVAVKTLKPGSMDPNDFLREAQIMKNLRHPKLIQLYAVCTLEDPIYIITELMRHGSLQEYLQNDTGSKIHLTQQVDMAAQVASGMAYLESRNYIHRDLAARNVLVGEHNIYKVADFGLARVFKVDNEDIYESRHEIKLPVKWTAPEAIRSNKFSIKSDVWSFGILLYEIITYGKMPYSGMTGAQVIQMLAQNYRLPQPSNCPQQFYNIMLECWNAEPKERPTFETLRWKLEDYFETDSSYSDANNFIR
Method: as §6

Rsk4(h) = Rsk4(h) (Homo sapiens, UniProt Q9UK32); assay: Kinase Profiler; type: biochemical
Method: as §6

Q: With `COc1ccc(OC)c(NS(=O)(=O)c2ccc(NC(=O)CCSc3ccc(C)cc3)cc2)c1` [Compound A41] as the molecule, how does the “TRIO-induced activation of RAC2” value (RAC2) read?
A: reduced

Q: What about the “TRIO-induced RHOG activation” value (RHOG) of the same molecule?
A: no effect

Q: And the “Count Positive (# of wells)” value ([1]; 1.0E-04 M)?
A: 0

Q: And the “Count Positive (# of wells)” value ([1]; 1.0E-05 M)?
A: 1

Q: And the “Count Positive (# of wells)” value ([1]; 5.0E-05 M)?
A: 0

Q: And the “Count Positive (# of wells)” value ([1]; 5.0E-06 M)?
A: 3

Q: What about the “% inh.” value [2] of the same molecule?
A: 14%

Q: What about the “% inh.” value (Melanocortin MC1) of the same molecule?
A: 14%

Q: What about the “% inh.” value (Progesterone PR-B) of the same molecule?
A: -16%

Q: What about the “Activity(%)” value (CDK17/cyclinY(h)) of the same molecule?
A: 96%

Q: What about the “Activity(%)” value (CLK2(h)) of the same molecule?
A: 97%

Q: And the “Activity(%)” value (eEF-2K(h))?
A: 97%

Q: What about the “Activity(%)” value (EphA8(h)) of the same molecule?
A: 112%

Q: And the “Activity(%)” value (Fer(h))?
A: 114%

Q: And the “Activity(%)” value (Fgr(h))?
A: 114%

Q: And the “Activity(%)” value (mTOR(h))?
A: 101%

Q: And the “Activity(%)” value (PASK(h))?
A: 97%

Q: What about the “Activity(%)” value (PTK5(h)) of the same molecule?
A: 113%

Q: What about the “Activity(%)” value (Rsk4(h)) of the same molecule?
A: 128%
